Measured values taken from paper PMC8064871 (International Journal of Biological Macromolecules, 2021).
Structures can show the parent of a compound that is named as a salt.

Columns and labels:
[1] = biological target: T1, SARS-CoV-2 3CL^pro (Severe acute respiratory syndrome coronavirus 2, UniProt P0DTD1); test: Enzymatic inhibition assay of SARS-CoV-2 3CLpro by FRET; format: biochemical; details: for inhibitory activity against SARS-CoV-2 3CL^pro (in words): concentrations 0, 1, 10, 100 μM
[2] = biological target: T1, SARS-CoV-2 3CL^pro; test: Intact protein molecular weight analysis by mass spectrometry; format: binding; details: 8.4 μM protease, 90 μM compound, 30 min at 37 °C
[3] = biological target: T1, SARS-CoV-2 3CL^pro; details: incubation 5-40 min at 37 °C; kobs = (k inact·[I])/(K I + [I])
[4] = biological target: T1, SARS-CoV-2 3CL^pro; test: biochemical; details: IC50 against SARS-CoV-2 3CL^pro, incubation 3 min

Compound | IC50 [1] [µM] | inhibitory activity against SARS-CoV-2 3CL^pro (in words) [1] | other results
O=C1C=CC(=O)c2c(O)ccc(O)c21 [Entry 7, 5,8-Dihydroxy-1,4-naphthoquinone] | 0.49 ± 0.11 |  | times higher inhibitory activity than Vitamin K3 ([1]; ratio of IC50 values against SARS-CoV-2 3CL^pro): 9.8 times; proteins bound with one compound [2]: 80%; proteins bound with two compounds [2]: about 10%; proteins covalently bound (total) [2]: about 90%; K I (inhibition constant) [3]: 3.05 µM; IC50 [4]: 0.79 µM
O=C1C=C(O)C(=O)c2ccccc21 [Entry 4, 2-Hydroxy-1,4-naphthoquinone] | > 100 | almost lose their inhibitory activities | 
O=C1C=C(Cl)C(=O)c2ccccc21 [Entry 3, 2-Chloro-1,4-naphthoquinone] | 1.92 ± 0.49 |  | 
O=C1C=CC(=O)c2c(O)cccc21 [Entry 6, 5-Hydroxy-1,4-naphthoquinone] | 4.11 ± 0.24 |  | 
COc1cc(C(=O)NS(=O)(=O)c2ccccc2C)ccc1Cc1cn(C)c2ccc(NC(=O)OC3CCCC3)cc12 [Zafirlukast, reference compound] | 46.7 |  | 
CC(=O)Oc1cc(C)c(OC(C)=O)c2ccccc12 [Vitamin K4, reference compound] |  | lost its inhibitory activity | 
N=C(N)c1ccc2cc(OC(=O)c3ccc(N=C(N)N)cc3)ccc2c1 [Nafamostat Mesylate, reference compound] |  |  | remaining activity at 100 µM ([1]; read-out: residual activity of the protease): ~60%
CC1=CC(=O)c2ccccc2C1=O [Entry 1, 2-Methyl-1,4-naphthoquinone (vitamin K3), reference compound] |  |  | proteins bound with one compound [2]: 55%; proteins bound with two compounds [2]: about 15%; proteins covalently bound (total) [2]: about 70%; K I (inhibition constant) [3]: 112.2 µM
CC1=C(C/C=C(\C)CCC[C@H](C)CCC[C@H](C)CCCC(C)C)C(=O)c2ccccc2C1=O [Vitamin K1, reference compound] |  | no inhibition at the high and middle concentration | 
O=NN(CCCl)C(=O)NC1CCCCC1 [Lomustine, reference compound] | 5.86 |  | 
O=C1C=CC(=O)c2ccccc21 [Entry 2, 1,4-Naphthoquinone] | 0.69 ± 0.13 |  | 
NC1=C(Cl)C(=O)c2ccccc2C1=O [Entry 5, 2-Amino-3-chloro-1,4-naphthoquinone] | > 100 | almost lose their inhibitory activities | 
CC1=CC(=O)c2c(O)cccc2C1=O [Entry 8, 2-Methyl-5-hydroxy-1,4-naphthoquinone] | 1.32 ± 0.33 |  | 
